From ChEMBL document CHEMBL1129964 (J Med Chem, 1997)

Key:
Prothrombin = Prothrombin (Homo sapiens, UniProt P00734); assay: Binding affinity towards thrombin
Serine protease 1 = Serine protease 1 (Homo sapiens, UniProt P07477); assay: Binding affinity towards trypsin
Plasminogen = Plasminogen (Homo sapiens, UniProt P00747); assay: Binding affinity towards Plasmin
[1] = molecular target: Tissue-type plasminogen activator (Homo sapiens, UniProt P00750); assay: Binding affinity against tissue-type plasminogen activator receptor
Tissue-type plasminogen activator, sequence (P00750 whole entry): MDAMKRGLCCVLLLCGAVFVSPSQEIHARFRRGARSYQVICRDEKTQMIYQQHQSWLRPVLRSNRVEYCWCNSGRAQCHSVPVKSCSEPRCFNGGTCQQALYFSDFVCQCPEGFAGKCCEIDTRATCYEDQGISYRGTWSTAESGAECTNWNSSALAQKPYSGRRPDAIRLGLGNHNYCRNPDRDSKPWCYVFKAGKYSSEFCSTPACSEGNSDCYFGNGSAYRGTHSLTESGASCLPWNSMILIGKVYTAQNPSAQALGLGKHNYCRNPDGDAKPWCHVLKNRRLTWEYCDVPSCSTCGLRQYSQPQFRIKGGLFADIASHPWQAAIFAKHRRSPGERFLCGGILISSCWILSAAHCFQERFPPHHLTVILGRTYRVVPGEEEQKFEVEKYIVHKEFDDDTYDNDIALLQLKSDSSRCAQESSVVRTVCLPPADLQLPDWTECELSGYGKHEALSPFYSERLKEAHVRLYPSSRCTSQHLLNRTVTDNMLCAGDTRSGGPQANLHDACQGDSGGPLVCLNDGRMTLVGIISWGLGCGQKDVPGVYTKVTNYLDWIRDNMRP

Plasminogen, sequence (P00747 97-580 limits assumed): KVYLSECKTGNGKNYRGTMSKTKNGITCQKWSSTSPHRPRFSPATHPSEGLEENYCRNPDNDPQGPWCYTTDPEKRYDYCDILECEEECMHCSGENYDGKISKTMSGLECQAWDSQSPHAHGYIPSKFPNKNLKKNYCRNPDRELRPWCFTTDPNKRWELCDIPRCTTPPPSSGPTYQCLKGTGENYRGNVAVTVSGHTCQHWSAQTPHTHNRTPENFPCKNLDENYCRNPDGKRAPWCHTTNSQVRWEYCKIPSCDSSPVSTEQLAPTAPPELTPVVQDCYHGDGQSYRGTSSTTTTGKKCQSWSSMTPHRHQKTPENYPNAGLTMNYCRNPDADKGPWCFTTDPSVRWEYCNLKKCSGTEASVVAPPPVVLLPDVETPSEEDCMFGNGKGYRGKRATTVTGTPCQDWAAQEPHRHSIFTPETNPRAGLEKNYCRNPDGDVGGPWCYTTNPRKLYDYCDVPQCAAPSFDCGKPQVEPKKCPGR
Plasminogen, sequence (P00747 581-810 limits assumed): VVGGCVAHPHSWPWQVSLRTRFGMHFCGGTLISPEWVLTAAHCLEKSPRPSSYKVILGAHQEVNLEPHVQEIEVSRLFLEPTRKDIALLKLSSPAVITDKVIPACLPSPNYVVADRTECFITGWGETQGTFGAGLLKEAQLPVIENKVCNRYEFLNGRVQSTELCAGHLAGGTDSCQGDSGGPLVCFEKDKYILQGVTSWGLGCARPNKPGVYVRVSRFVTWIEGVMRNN
Serine protease 1, sequence (P07477 whole entry): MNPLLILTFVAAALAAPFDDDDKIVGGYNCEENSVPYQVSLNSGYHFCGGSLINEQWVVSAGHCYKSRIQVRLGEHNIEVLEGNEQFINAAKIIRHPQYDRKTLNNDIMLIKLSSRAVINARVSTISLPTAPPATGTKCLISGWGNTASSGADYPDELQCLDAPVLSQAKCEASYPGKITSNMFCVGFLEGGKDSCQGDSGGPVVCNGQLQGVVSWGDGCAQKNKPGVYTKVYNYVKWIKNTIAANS

Compound	Ki (Prothrombin)	Ki (Serine protease 1)	Ki (Plasminogen)	Ki [1]
NC1CCC(CNC(=O)[C@@H]2CCCN2C(=O)[C@H](N)C(c2ccccc2)c2ccccc2)CC1 (stereo partly drawn)	0.1 nM			
NC1CCC(CNC(=O)[C@@H]2CCCN2C(=O)C(NS(=O)(=O)Cc2ccccc2)C(c2ccccc2)c2ccccc2)CC1 (stereo partly drawn)	0.0025 nM	0.004 µM	0.49 µM	6700 µM

The remaining lines, values ahead:

Ki (Prothrombin)	Ki (Serine protease 1)	Ki (Plasminogen)	Ki [1]	Compound
5 nM				CN[C@H](Cc1ccccc1)C(=O)N1CCC[C@H]1C(=O)NC[C@H]1CC[C@H](N)CC1
0.4 nM				NC1CCC(CNC(=O)[C@@H]2CCCN2C(=O)[C@@H](Cc2ccccc2)NS(=O)(=O)Cc2ccccc2)CC1 (stereo partly drawn)
0.09 nM				CNC(=O)C(=O)[C@@H](NC(=O)[C@@H]1CCCN1C(=O)[C@@H](Cc1ccccc1)NC)[C@H]1CC[C@H](N)CC1
